Test results taken from ChEMBL document CHEMBL5376004, “Discovery and Development of Quinazolinones and Quinazolinediones for Ameliorating Nonalcoholic Fatty Liver Disease (NAFLD) by Modulating COP1-ATGL Axis” (J Med Chem, 2023).
Converted amounts (≈) assume the structure as drawn. The source made the active and inactive calls. The rule behind the calls is not given here.

Key:
Mus musculus [1] = assay: Anti-NASH activity in high-fat diet induced nonalcoholic steatohepatitis C57BL/6 mouse assessed as reduction in accumulation of fat droplets at 80 mg/kg, po administered for 1 month by H and E staining based assay; type: functional, organism-based; settings: time 1.0 months
Mus musculus [2] = organism: Mus musculus; assay: Upregulation of ATGL protein level in mouse primary adipose tissue incubated for 24 hrs by Western blotting analysis; type: functional, tissue-based; settings: dose 100-1000 nM
HepG2 [3] = assay: Reduction in lipid droplets in human HepG2 cells by […] staining based confocal microscopic analysis; type: functional, cell-based
HepG2 [4] = assay: Cytotoxicity against human HepG2 cells upto 5 uM incubated for 24 hrs by MTT assay; type: toxicity, cell-based; settings: hepg2, 24 h
[5] = Metabolic stability in mouse liver microsomes assessed as half life; type: ADME, Microsome
[6] = Toxicity in C57BL/6 mouse assessed as inflammatory infiltration; settings: in vivo
[7] = Metabolic stability in mouse liver microsomes assessed as hepatic blood flow; type: ADME, Microsome; settings: read-out: QH
Mus musculus [8] = assay: Upregulation of COP1 expression level in C57BL/6 mouse adipose tissue at 80 mg/kg, po administered for 7 days; type: functional, organism-based; settings: time 7.0 day
[9] = target: T1, Patatin-like phospholipase domain-containing protein 2 (Homo sapiens) (UniProt Q96AD5); assay: Inhibition of ATGL ubiquitination (unknown origin) expressed in HEK293-A cells incubated for 6 hrs by Western blotting analysis; type: cell-based
T1 sequence (whole entry): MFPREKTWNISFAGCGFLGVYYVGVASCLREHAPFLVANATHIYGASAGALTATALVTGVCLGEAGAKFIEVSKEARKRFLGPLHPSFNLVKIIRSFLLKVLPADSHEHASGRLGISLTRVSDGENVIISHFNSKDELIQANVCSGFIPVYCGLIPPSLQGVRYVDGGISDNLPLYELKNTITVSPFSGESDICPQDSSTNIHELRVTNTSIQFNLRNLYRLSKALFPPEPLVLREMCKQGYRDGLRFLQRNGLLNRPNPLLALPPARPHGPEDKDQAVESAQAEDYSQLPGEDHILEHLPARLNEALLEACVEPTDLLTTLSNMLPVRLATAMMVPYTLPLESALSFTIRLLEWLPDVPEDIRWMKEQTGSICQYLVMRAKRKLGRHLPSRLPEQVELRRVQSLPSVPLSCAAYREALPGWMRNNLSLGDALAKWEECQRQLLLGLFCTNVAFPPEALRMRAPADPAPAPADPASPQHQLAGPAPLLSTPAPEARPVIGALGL

[10] = Metabolic stability in mouse liver microsomes assessed as intrinsic clearance per mg of protein; type: ADME, Microsome; settings: read-out: CLH
[11] = Stability in human plasma assessed as compound remaining after 2 hrs; type: ADME, cell-free; settings: read-out: Stability
[12] = Toxicity in C57BL/6 mouse assessed as change in liver morphology by H and E staining based histological analysis; type: tissue-based; settings: in vivo
HepG2 [13] = assay: Effect on ATGL mRNA level in human HepG2 cells at 50 to 5000 nM after 24 hrs by RT-qPCR analysis; type: functional, cell-based; settings: dose 50-5000 nM
HepG2 [14] = assay: Effect on COP1 in human HepG2 cells assessed as change in c-Jun level at 10 to 500 nM by RT-qPCR analysis; type: functional, cell-based; settings: dose 10-500 nM
Mus musculus [15] = assay: Upregulation of COP1 expression level in C57BL/6 mouse liver at 80 mg/kg, po administered for 7 days; type: functional, organism-based; settings: time 7.0 day
Mus musculus [16] = assay: Anti-NASH activity in high-fat diet induced nonalcoholic steatohepatitis C57BL/6 mouse assessed as appearance of darker liver at 80 mg/kg, po administered for 1 month; type: functional, organism-based; settings: time 1.0 months
[17] = Metabolic stability in human liver microsomes assessed as half life; type: ADME, Microsome
Hepatocyte [18] = assay: Upregulation of ATGL protein level in mouse primary hepatocytes incubated for 24 hrs by Western blotting analysis; type: functional, cell-based; settings: dose 10-500 nM
COP1-AGTL (Homo sapiens) = COP1-AGTL (Homo sapiens) (UniProt Q96AD5+Q8NHY2); assay: Induction of COP1 to ATGL stabilization (unknown origin) expressed in HEK293-A cells assessed as reduction in ATGL ubiquitination incubated for 6 hrs by Western blotting analysis; type: cell-based
Chain of COP1-AGTL (Homo sapiens) (Q8NHY2 whole entry, looked up, one chain of several): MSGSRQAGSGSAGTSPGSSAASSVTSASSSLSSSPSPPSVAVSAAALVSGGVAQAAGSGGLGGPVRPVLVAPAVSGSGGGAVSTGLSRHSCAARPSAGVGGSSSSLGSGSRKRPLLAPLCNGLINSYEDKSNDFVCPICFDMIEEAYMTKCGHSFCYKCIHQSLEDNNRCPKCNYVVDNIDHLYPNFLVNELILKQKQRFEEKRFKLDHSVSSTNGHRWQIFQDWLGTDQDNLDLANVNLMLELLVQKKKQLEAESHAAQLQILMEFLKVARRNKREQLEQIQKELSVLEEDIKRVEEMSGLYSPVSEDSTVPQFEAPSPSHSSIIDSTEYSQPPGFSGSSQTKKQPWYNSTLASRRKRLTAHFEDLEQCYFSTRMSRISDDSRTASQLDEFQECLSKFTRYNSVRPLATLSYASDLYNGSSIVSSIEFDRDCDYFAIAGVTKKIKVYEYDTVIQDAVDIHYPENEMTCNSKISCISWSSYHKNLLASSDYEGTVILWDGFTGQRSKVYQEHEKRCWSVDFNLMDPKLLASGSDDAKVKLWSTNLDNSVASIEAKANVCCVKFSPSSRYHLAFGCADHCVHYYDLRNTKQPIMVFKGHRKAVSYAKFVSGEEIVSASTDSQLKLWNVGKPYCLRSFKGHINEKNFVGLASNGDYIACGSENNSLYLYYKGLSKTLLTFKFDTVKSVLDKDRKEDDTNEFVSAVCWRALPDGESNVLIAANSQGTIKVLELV

[19] = Lipophilicity, logD of compound; type: physicochemical; settings: octanol/water
[20] = Stability in mouse plasma assessed as compound remaining after 2 hrs; type: ADME, cell-free; settings: read-out: Stability
[21] = Toxicity in C57BL/6 mouse assessed as change in kidney tubular structure; type: tissue-based; settings: in vivo
[22] = Toxicity in C57BL/6 mouse assessed as change in lung morphology by H and E staining based histological analysis; type: tissue-based; settings: in vivo
Mus musculus [23] = assay: Anti-NASH activity in high-fat diet induced nonalcoholic steatohepatitis C57BL/6 mouse assessed as reduction in liver triglyceride level at 80 mg/kg, po administered for 1 month; type: functional, organism-based; settings: time 1.0 months
Mus musculus [24] = assay: Upregulation of ATGL expression level in C57BL/6 mouse adipose tissue at 80 mg/kg, po administered for 7 days; type: functional, organism-based; settings: time 7.0 day
Mus musculus [25] = assay: Anti-NASH activity in high-fat diet induced nonalcoholic steatohepatitis C57BL/6 mouse assessed as reduction in liver weight at 80 mg/kg, po administered for 1 month; type: functional, organism-based; settings: time 1.0 months
Mus musculus [26] = assay: Anti-NASH activity in high-fat diet induced nonalcoholic steatohepatitis C57BL/6 mouse assessed as reduction in liver collagen fiber content at 80 mg/kg, po administered for 1 month by sirius red staining based assay; type: functional, organism-based; settings: time 1.0 months
[27] = Metabolic stability in human liver microsomes assessed as intrinsic clearance per mg of protein; type: ADME, Microsome; settings: read-out: CLH
Mus musculus [28] = assay: Upregulation of ATGL expression level in C57BL/6 mouse liver at 80 mg/kg, po administered for 7 days; type: functional, organism-based; settings: time 7.0 day
Mus musculus [29] = assay: Anti-NASH activity in high-fat diet induced nonalcoholic steatohepatitis C57BL/6 mouse assessed as reduction in liver size at 80 mg/kg, po administered for 1 month; type: functional, organism-based; settings: time 1.0 months
[30] = Aqueous solubility of compound at pH 7.4; type: physicochemical
Mus musculus [31] = assay: Anti-NASH activity in high-fat diet induced nonalcoholic steatohepatitis C57BL/6 mouse assessed as reduction in body weight at 80 mg/kg, po administered for 1 month; type: functional, organism-based; settings: time 1.0 months
[32] = Metabolic stability in human liver microsomes assessed as hepatic blood flow; type: ADME, Microsome; settings: read-out: QH
[33] = Toxicity in C57BL/6 mouse assessed as change in kidney morphology by H and E staining based histological analysis; settings: in vivo
HepG2 [34] = assay: Effect on COP1 in human HepG2 cells assessed as change in p53 level at 10 to 500 nM by RT-qPCR analysis; type: functional, cell-based; settings: dose 10-500 nM
[35] = target: T1, Patatin-like phospholipase domain-containing protein 2 (Homo sapiens); assay: Inhibition of ATGL ubiquitination in human HepG2 cells preincubated for 20 hrs followed by MG132 addition and measured after 4 hrs by immunoprecipitation method; type: cell-based; settings: time 24.0 hrs
Hepatocyte [36] = assay: Reduction in lipid droplets in oleate induced mouse primary hepatocytes at 100 nM by BODIPY493/503 staining based confocal microscopic analysis; type: functional, cell-based
[37] = target: E3 ubiquitin-protein ligase COP1 (Homo sapiens) (UniProt Q8NHY2); assay: Inhibition of COP1 auto-ubiquitination in human HepG2 cells preincubated for 20 hrs followed by MG132 addition and measured after 4 hrs by immunoprecipitation method; type: cell-based; settings: time 24.0 hrs
Chain of E3 ubiquitin-protein ligase COP1 (Homo sapiens) (Q8NHY2 whole entry): as the sequence (Q8NHY2 whole entry, looked up, one chain of several) above

HepG2 [38] = assay: Reduction in lipid droplets in human HepG2 cells at 100 nM incubated for 24 hrs by Hoechst 33342 staining based confocal microscopic analysis; type: functional, cell-based

Compound	Activity (Mus musculus [1])	Activity (Mus musculus [2])	Activity (HepG2 [3])	Activity (HepG2 [4])	half-life [5] [min]	Activity [6]	hepatic extraction ratio [7]	Activity (Mus musculus [8])	inhibition [9]	microsomal CLint [10] [µL/min/mg]	remaining at 2 h [11] [%]	Activity [12]	Activity (HepG2 [13])	Activity (HepG2 [14])	Activity (Mus musculus [15])	Activity (Mus musculus [16])	half-life [17] [min]	Activity (Hepatocyte [18])	Activity (COP1-AGTL (Homo sapiens))	logD [19]	other results
COCCn1cnc2ccc(NC(=O)Nc3cccc(C(C)=O)c3)cc2c1=O	Active	inactive	Active	Non-Toxic	87	Non-Toxic	0.181	inactive	Active	8.15	16.9	Non-Toxic	inactive	inactive	Active	Active	119	Dose-Dependent Effect	Active	2.38	remaining at 2 h [20]: 14.2%; Activity [21]: Non-Toxic; Activity [22]: Non-Toxic; Activity (Mus musculus [23]): Active; Activity (Mus musculus [24]): inactive; Activity (Mus musculus [25]): Active; Activity (Mus musculus [26]): Active; microsomal CLint [27]: 5.84 µL/min/mg; Activity (Mus musculus [28]): Active; Activity (Mus musculus [29]): Active; solubility [30]: 2.56 µg/mL (≈ 6.73 µM); Activity (Mus musculus [31]): Active; hepatic extraction ratio [32]: 0.213; Activity [33]: Non-Toxic; Activity (HepG2 [34]): inactive
COCCn1c(=O)c2cc(NC(=O)Nc3cccc(C(C)=O)c3)ccc2n(CCN2CCCCC2)c1=O	Active	inactive	Active	Non-Toxic	12.3	Non-Toxic	0.605	inactive	Active	56.2	110	Non-Toxic	inactive	inactive	Active	Active	24.5	Dose-Dependent Effect	Active	2.78	inhibition [35]: Active; Activity (Hepatocyte [36]): Active; remaining at 2 h [20]: 103%; Activity [21]: Non-Toxic; Activity [22]: Non-Toxic; Activity (Mus musculus [23]): Active; Activity (Mus musculus [24]): inactive; Activity (Mus musculus [25]): Active; Activity (Mus musculus [26]): Active; inhibition [37]: Active; microsomal CLint [27]: 28.3 µL/min/mg; Activity (Mus musculus [28]): Active; Activity (HepG2 [38]): Active; Activity (Mus musculus [29]): Active; solubility [30]: 116 µg/mL (≈ 228 µM); Activity (Mus musculus [31]): Active; hepatic extraction ratio [32]: 0.567; Activity [33]: Non-Toxic; Activity (HepG2 [34]): inactive
